Source: patent US12251373B2, “Compounds and methods of treating retinal degeneration” (CASE WESTERN RESERVE UNIVERSITY, priority 2017, dated 2025)

Target: T1, human clarin-1 N48K (Homo sapiens, UniProt P58418, N48K)
T1 sequence (P58418 1-232 N48K): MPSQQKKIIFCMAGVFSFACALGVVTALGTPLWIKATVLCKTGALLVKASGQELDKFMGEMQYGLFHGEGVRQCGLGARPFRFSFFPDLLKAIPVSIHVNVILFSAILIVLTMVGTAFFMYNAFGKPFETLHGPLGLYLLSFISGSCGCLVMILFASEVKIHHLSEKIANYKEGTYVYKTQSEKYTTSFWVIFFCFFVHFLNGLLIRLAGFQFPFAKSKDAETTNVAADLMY
Assay: Image-based analysis of clarin-1 N48K-Venus in HEK 293 cells
Type: cell-based
Experimental: HEK 293 stable cells co-expressing human clarin-1 N48K-Venus fluorescent protein and DsRed-Express-DR fusion protein were obtained from Dr. Yoshikazu Imanishi at Case Western Reserve University (CWRU). Cells were cultured in DMEM medium with 10% FBS following guidelines from ATCC. To test effects of YC-001 treatments on clarin-1 N48K-Venus amounts in these cells, an image-based assay was performed. Briefly, cells were seeded at 20,000 cells per well in 40 μL per well DMEM medium with 10% FBS in a 384-well PerkinElmer View plate coated with poly-D-lysine and cultured at 37° C. with 5% CO2 for 24 h. Cells then were treated with 10 μL per well DMEM medium with 10% FBS containing 5× the final concentration of tested compounds. […] Each compound was tested with 10 doses in a 2-fold dilution series, featuring 3 biological replicates. The 384-well plate was put back for incubation at 37° C. with 5% CO2. After 24 h of exposure to test compounds, the plate was removed, and the medium was aspirated and replaced by 20 μL per well of 4% paraformaldehyde for fixation at RT for 20 min. […] Images were analyzed by the Columbus storage and analysis system (Perkin Elmer). Hoechst33342 fluorescence images were used to define nuclei and count cells. […] YFP and DsRed fluorescence intensities per cell were measured in each well.

Compound: O=C1OCC(c2ccc(Cl)s2)=C1c1cccs1 [YC-001]
- amount or stability of the clarin-1 N48K mutant: did not affect the amount or stability
